Experimental data: patent publication US9808466B2, “Macrocyclic compounds as protein kinase inhibitors” (Fundación Centro Nacional de Investigaciones Oncologicas …, priority 2011, dated 2017)
Like-named read-outs stand apart in the source and are kept apart here.

Assays:
[1] = Pharmacokinetic in BALB-c female mice, i.v. and oral; assay type: in vivo; settings: for AUC(0-inf) / half-life / clearance / MRT / Vd / bioavailability / Cmax: mouse; for half-life: read-out: T½ last (plasmatic half life) (converted); for clearance: read-out: Cl (plasmatic clearance) (converted); for MRT: read-out: MRT (Mean residence time); for Vd: read-out: Vd (volume of distribution); for bioavailability: P.O dose 10.00 mg/Kg vs I.V 5.00 mg/Kg, read-out: F % (bioavailability); for Cmax: read-out: C max (maximum plasma concentration after oral administration)
Description: Experiments were done using BALB-c female mice, 10 weeks old. Compounds were dissolved in selected vehicles at a concentration calculated in order to administer the dose selected in 0.1 mL. Animals were administered by i.v and oral route (by gavage), and sacrificed at different time points (n=3 at each time point). Time points were 0.08, 0.25, 0.5, 1, 4 and 8 h for the i.v branch, and 0.08, 0.16, 0.25, 0.5, 1, 4, 8 and 24 h for oral branch. Blood was collected and processed for plasma which was analyzed and quantified by means of tandem mass spectrometry coupled with liquid chromatography. Pharmacokinetic parameters were estimated by fitting the experimental data to a compartmental model using Winnonlin software for pharmacokinetic analysis.

PIM-1 = molecular target: T1, PIM-1 (Homo sapiens, UniProt P11309); assay: PIM-1 biochemical assay (ADP Hunter)
T1 construct: histidine tag (C); made in house
Text: The biochemical assay to measure PIM-1 activity relies on the ADP Hunter assay kit (DiscoveRx Corp., Cat. #90-0077), that determines the amount of ADP as direct product of the kinase enzyme activity.
The enzyme has been expressed and purified in-house as a recombinant human protein with a C-terminal histidine tag. The protein is active and stable.
Assay conditions were as indicated by the kit manufacturers with the following adaptations for the kinase activity step: • Kinase assay buffer and assay volume stay as recommended (15 mM HEPES, pH 7.4, 20 mM NaCl, 1 mM EGTA, 0.02% Tween 20, 10 mM MgCl2 and 0.1 mg/ml bovine γ-globulins/75 μl assay volume) • Incubation time and temperature: 60 min at 30° C. • PIM-1 concentration: 50 pg/μl • ATP concentration: 100 μM • PIM-1 substrate peptide: PIMtide ([…]) (SEQIDNO. 1) • Peptide concentration: 60 μM • Positive control for kinase activity inhibition: 1-10 μM Staurosporine • DMSO concentration have to stay below 2% during the kinase reaction
Assays were performed in either 96 or 384-well plates. The final outcome of the coupled reactions provided by the kit is the release of the fluorescent product Resorufin and has been measured with a multilabel HTS counter VICTOR V (PerkinElmer) using an excitation filter at 544 nm and an emission filter at 580 nm.

PI3K (p110α/p85α) = molecular target: T2, PI3K (p110α/p85α) (Homo sapiens, UniProt P42336); assay: PI3K activity assay (ADP Hunter Plus); assay type: biochemical
T2 construct: purchased Carna Biosciences 07CBS-0402A
Description: The kinase activity was measured by using the commercial ADP Hunter™ Plus assay available from DiscoveRx (#33-016), which is a homogeneous assay to measure the accumulation of ADP, a universal product of kinase activity. […] Reaction was carried out for 1 hour at 25° C. Reagent A and B were sequentially added to the wells and plates were incubated for 30 min at 37° C. Fluorescence counts were read in a Victor instrument (Perkin Elmer) with the recommended settings (544 and 580 nm as excitation and emission wavelengths, respectively). Values were normalized against the control activity included for each enzyme (i.e., 100% PI3 kinase activity, without compound). These values were plotted against the inhibitor concentration and were fit to a sigmoid dose-response curve by using the Graphad software.

mTOR = molecular target: T3, mTOR (Homo sapiens, UniProt P42345); assay: mTOR assay (LanthaScreen kinase activity assay); assay type: biochemical
T3 construct: purchased Invitrogen PV4754
Description: The enzymatic mTOR activity was measured using a LanthaScreen™ kinase activity assay (Invitrogen). The enzyme was purchased from Invitrogen (PV4754), as well as the GFP-labeled substrate (4EBP1-GFP; PV4759) and the Tb-anti-p4EBP1(pThr46) antibody (PV4757). The assay was performed in 50 mM HEPES buffer, pH 7.5, containing 1.5 mM MnCl2, 10 mM MgCl2, 1 mM EGTA, 2.5 mM DTT and 0.01% Tween-20. The concentration of the assay components were the following: 0.24 nM mTOR kinase, 400 nM 4EBP1-GFP, […] and serial dilutions of the compound (inhibitor) to be evaluated. After 1 h incubation at room temperature, 20 mM EDTA was used to stop the reaction and terbium-labeled antibody (4 nM) added to detect phosphorylated product. The antibody associates with the phosphorylated product resulting in an increased TR-FRET value. The TR-FRET value (a dimensionless number) was calculated as the ratio of the acceptor signal (GFP, emission at 520 nm) to the donor signal (terbium, emission at 495 nm). Values were plotted against the inhibitor concentration and fitted to a sigmoid dose-response curve using GraphPad software.

[2] = iv, I.V, dose 5.00 mg/Kg, plasma
[3] = plasma, iv, I.V, dose 5.00 mg/Kg
[4] = po, P.O, dose 10.00 mg/Kg, plasma
[5] = PIM1, read-out: PIM-1 activity, IC50 (semi-quantitative class)
[6] = read-out: PI3K alpha activity, IC50 (semi-quantitative class)
[7] = read-out: PI3K alpha actual IC50 (in parentheses)
[8] = read-out: mTOR activity, IC50 (semi-quantitative class)
[9] = read-out: mTOR actual IC50 (in parentheses)
[10] = read-out: PIM-1 activity (semi-quantitative IC50)
[11] = read-out: PI3K alpha activity (semi-quantitative IC50)
[12] = read-out: mTOR activity (semi-quantitative IC50)

T1 sequence (P11309 whole entry): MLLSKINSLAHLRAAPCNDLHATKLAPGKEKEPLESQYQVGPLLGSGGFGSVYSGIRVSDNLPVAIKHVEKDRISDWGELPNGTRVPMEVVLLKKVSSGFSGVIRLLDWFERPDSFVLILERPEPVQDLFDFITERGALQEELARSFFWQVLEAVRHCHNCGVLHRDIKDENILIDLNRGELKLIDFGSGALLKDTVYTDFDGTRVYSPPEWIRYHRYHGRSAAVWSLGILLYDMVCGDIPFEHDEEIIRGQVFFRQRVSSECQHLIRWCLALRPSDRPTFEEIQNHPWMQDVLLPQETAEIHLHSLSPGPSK
T3 sequence (P42345 1360-2549 limits assumed): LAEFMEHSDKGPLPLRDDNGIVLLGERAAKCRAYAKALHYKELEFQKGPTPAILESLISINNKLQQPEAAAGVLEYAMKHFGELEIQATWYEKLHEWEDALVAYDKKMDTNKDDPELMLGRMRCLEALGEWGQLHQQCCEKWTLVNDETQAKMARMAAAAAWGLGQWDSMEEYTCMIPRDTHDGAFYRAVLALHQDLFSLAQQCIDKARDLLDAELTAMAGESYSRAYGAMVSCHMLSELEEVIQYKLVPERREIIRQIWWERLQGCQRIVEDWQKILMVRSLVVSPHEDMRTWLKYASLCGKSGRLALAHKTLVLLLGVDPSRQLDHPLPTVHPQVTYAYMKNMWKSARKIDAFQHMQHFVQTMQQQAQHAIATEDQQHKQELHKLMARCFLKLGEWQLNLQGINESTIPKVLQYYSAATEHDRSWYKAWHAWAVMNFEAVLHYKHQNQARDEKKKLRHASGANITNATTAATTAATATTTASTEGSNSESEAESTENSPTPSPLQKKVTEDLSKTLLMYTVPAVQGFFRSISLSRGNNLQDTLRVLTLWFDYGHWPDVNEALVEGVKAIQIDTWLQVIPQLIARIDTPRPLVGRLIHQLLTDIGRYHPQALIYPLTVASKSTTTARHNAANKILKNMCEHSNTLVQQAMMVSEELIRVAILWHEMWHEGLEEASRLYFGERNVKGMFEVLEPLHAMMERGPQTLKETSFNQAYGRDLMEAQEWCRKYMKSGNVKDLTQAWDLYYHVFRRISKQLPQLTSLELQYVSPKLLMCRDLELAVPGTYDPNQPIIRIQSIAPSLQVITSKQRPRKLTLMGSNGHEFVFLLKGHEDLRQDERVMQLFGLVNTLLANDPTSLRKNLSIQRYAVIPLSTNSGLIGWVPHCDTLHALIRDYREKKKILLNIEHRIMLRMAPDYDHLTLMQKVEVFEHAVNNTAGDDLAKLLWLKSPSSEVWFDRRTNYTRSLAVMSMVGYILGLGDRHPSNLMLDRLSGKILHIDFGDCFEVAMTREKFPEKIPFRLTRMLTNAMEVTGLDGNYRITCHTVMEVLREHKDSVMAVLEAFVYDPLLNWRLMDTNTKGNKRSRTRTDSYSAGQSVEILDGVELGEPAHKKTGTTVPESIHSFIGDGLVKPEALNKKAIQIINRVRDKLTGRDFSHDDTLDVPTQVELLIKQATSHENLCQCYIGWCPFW
T2 sequence (P42336 whole entry): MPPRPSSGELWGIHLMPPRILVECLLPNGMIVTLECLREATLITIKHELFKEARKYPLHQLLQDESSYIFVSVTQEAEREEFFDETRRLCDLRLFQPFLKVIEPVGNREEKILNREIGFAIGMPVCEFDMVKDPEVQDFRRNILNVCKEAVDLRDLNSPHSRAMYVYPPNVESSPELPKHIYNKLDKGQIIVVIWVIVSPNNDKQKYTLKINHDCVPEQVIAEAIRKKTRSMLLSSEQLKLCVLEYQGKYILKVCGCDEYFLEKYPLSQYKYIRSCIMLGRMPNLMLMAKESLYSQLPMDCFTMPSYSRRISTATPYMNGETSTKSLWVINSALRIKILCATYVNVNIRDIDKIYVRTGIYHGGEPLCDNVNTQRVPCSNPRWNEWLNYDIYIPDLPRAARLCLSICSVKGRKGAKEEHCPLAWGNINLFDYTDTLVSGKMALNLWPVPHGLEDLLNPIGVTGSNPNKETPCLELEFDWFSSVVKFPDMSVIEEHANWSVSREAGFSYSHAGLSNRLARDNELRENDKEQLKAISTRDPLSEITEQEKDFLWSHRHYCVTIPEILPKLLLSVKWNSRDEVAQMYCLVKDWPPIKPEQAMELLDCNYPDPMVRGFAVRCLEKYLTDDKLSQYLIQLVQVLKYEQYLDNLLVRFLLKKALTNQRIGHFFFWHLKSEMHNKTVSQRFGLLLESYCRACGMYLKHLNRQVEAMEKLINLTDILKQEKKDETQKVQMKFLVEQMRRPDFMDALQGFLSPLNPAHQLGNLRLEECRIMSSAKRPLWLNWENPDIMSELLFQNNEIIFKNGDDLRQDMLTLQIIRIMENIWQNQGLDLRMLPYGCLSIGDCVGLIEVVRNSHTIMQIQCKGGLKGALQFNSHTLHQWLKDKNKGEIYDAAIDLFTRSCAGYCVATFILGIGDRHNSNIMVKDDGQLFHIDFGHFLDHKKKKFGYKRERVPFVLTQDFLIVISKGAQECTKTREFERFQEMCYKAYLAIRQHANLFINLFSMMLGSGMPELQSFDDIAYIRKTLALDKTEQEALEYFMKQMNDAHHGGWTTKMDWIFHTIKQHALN
T2 sequence (P27986 whole entry partner): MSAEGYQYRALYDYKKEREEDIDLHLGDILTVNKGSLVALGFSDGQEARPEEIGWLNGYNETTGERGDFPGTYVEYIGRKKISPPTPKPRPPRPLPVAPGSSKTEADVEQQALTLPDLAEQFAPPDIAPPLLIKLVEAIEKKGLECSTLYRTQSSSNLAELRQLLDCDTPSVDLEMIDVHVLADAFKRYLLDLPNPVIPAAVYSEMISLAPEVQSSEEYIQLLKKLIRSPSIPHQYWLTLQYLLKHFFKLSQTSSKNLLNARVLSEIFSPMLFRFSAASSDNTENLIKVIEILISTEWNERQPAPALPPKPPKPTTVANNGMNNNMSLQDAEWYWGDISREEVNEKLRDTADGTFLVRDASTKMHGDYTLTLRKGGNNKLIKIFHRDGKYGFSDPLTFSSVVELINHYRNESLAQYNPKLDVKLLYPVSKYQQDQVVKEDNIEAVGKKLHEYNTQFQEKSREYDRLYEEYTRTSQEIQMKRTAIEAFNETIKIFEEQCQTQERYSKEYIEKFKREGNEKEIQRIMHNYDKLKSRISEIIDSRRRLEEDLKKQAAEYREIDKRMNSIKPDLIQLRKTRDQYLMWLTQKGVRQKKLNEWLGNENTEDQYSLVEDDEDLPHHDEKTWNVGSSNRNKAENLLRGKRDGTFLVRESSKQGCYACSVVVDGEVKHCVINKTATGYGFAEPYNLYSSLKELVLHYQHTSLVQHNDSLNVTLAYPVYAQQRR

Which results are given for `COc1ncc2cc1NS(=O)(=O)c1cccc(c1)C(=O)NCc1cccc(c1)-c1ccnc3ccc-2cc13` [compound 3]?
AUC(0-inf) [1, 2]: 23700 ng·h/mL; half-life [1, 2]: 1.41 h; clearance [1, 3]: 6 mL/min/kg; MRT [1, 3]: 1.27 h; Vd [1, 3]: 0.46 L/kg; bioavailability ([1]; plasma, po): 101%; AUC(0-inf) [1, 4]: 48100 ng·h/mL; Cmax [1, 4]: 12400 ng/mL; IC50 (PIM-1; [5]): > 1000 nM; IC50 (PI3K (p110α/p85α); [6]): < 100 nM; IC50 (PI3K (p110α/p85α); [7]): 1.6 nM; IC50 (mTOR; [8]): 100 to 1000 nM

For `COc1ncc2cc1NS(=O)(=O)c1cc(c(F)cc1F)C(=O)NCc1cncc(c1)-c1ccnc3ccc-2cc13` [compound 10], which “Cl (plasmatic clearance)” value ([1]; I.V, dose 5.00 mg/Kg) is on record?
The value was 8.83 mL/min/kg.

And the AUC inf ([1]; I.V, dose 5.00 mg/Kg, plasma)?
The AUC inf was 9467.60 ng·h/mL.

And the T½ last (plasmatic half life) ([1]; I.V, dose 5.00 mg/Kg, plasma)?
The T½ last (plasmatic half life) was 0.57 h.

And the MRT [1, 3]?
The MRT was 0.53 h.

What about the Vd [1, 3] of the same compound?
Its Vd is 0.28 L/kg.

And the bioavailability ([1]; plasma, po)?
Its bioavailability is 39.9%.

And the AUC(0-inf) [1, 4]?
Its AUC(0-inf) is 7560 ng·h/mL.

What about the Cmax [1, 4] of the same compound?
The Cmax was 3390 ng/mL.

What about the IC50 (PIM-1; [5]) of the same compound?
The IC50 was > 1000 nM.

And the IC50 (PI3K (p110α/p85α); [6])?
Its IC50 is < 100 nM.

What about the IC50 (PI3K (p110α/p85α); [7]) of the same compound?
The IC50 was 0.03 nM.

And the IC50 (mTOR; [8])?
The IC50 was < 100 nM.

And the IC50 (mTOR; [9])?
Its IC50 is 22 nM.

Which results are given for `COc1ncc2cc1NS(=O)(=O)c1cccc(c1)C(=O)NCc1cccc(c1)-c1ncnc3ccc-2cc13` [compound 22]?
AUC(0-inf) [1, 2]: 66900 ng·h/mL; half-life [1, 2]: 3.42 h; clearance [1, 3]: 1.17 mL/min/kg; MRT [1, 3]: 4.94 h; Vd [1, 3]: 0.37 L/kg; bioavailability ([1]; plasma, po): 33.5%; AUC(0-inf) [1, 4]: 44800 ng·h/mL; Cmax [1, 4]: 15000 ng/mL; IC50 (PIM-1; [5]): > 1000 nM; IC50 (PI3K (p110α/p85α); [6]): < 100 nM; IC50 (PI3K (p110α/p85α); [7]): 0.1 nM

Which IC50 (PIM-1; [5]) does the source give for `COc1ncc2cc1NS(=O)(=O)c1cc(ccc1F)C(=O)NCc1cncc(c1)-c1ncnc3c1SC2=C3` [compound 52] here?
The IC50 was 100 to 1000 nM.

What about the IC50 (PI3K (p110α/p85α); [6]) of the same compound?
The IC50 was 100 to 1000 nM.

What about the IC50 (mTOR; [8]) of the same compound?
Its IC50 is > 1000 nM.

Which results are given for `COc1ncc2cc1NS(=O)(=O)c1cccc(c1)C(=O)NCc1cccc(c1F)-c1ccnc3ccc-2cc13` [compound 5]?
IC50 (PIM-1; [5]): > 1000 nM; IC50 (PI3K (p110α/p85α); [6]): < 100 nM; IC50 (PI3K (p110α/p85α); [7]): 23 nM; IC50 (mTOR; [8]): 100 to 1000 nM

Which results are given for `COc1ncc2cc1NS(=O)(=O)c1cccc(c1)C(=O)NCc1cc(ccc1F)-c1ncnc3c1SC2=C3` [compound 65]?
IC50 (PIM-1; [5]): > 1000 nM; IC50 (PI3K (p110α/p85α); [6]): 100 to 1000 nM; IC50 (mTOR; [8]): > 1000 nM

Which IC50 (PIM-1; [10]) does the source give for `COCCOc1ccc2cc1C(=O)NCC1=CC=C(S1)c1ncnc3c1SC(=C3)c1cnc(OC)c(c1)NS2(=O)=O` [compound 93] here?
The IC50 was > 1000 nM.

And the IC50 (PI3K (p110α/p85α); [11])?
The IC50 was 100 to 1000 nM.

And the IC50 (mTOR; read-out: mTOR IC50 (in parentheses))?
The IC50 was 32 nM.

And the IC50 (mTOR; [12])?
Its IC50 is < 100 nM.

Which IC50 (PIM-1; [5]) does the source give for `COc1ncc2cc1NS(=O)(=O)c1cccc(c1)C(=O)NCCCCNc1ccnc3ccc-2cc13` [compound 7] here?
Its IC50 is > 1000 nM.

What about the IC50 (PI3K (p110α/p85α); [6]) of the same compound?
Its IC50 is > 1000 nM.

And the IC50 (mTOR; [8])?
Its IC50 is > 1000 nM.

With `COc1ncc2cc1NS(=O)(=O)c1cccc(c1)C(=O)NCCn1cc(cn1)-c1ncnc3c1OC2=C3` [compound 51] as the compound, how does the IC50 (PIM-1; [5]) read?
Its IC50 is > 1000 nM.

And the IC50 (PI3K (p110α/p85α); [6])?
The IC50 was 100 to 1000 nM.

What about the IC50 (mTOR; [8]) of the same compound?
Its IC50 is > 1000 nM.

For `COc1ncc2cc1NS(=O)(=O)c1cccc(c1)C(=O)NC[C@H]1CCN(C1)c1ncnc3c1SC2=C3C` [compound 99], which IC50 (PIM-1; read-out: PIM-1 IC50 (in parentheses)) is on record?
The IC50 was 53 nM.

What about the IC50 (PIM-1; [10]) of the same compound?
Its IC50 is < 100 nM.

And the IC50 (PI3K (p110α/p85α); read-out: PI3K alpha IC50 (in parentheses))?
The IC50 was 43 nM.

What about the IC50 (PI3K (p110α/p85α); [11]) of the same compound?
The IC50 was < 100 nM.

And the IC50 (mTOR; [12])?
Its IC50 is > 1000 nM.

For `COc1ncc2cc1NS(=O)(=O)c1cccc(c1)C(=O)NCc1cccc(c1)-c1ccnc3ccc-2nc13` [compound 35], which IC50 (PIM-1; [5]) is on record?
Its IC50 is > 1000 nM.

And the IC50 (PI3K (p110α/p85α); [6])?
The IC50 was < 100 nM.

What about the IC50 (PI3K (p110α/p85α); [7]) of the same compound?
Its IC50 is 5 nM.

What about the IC50 (mTOR; [8]) of the same compound?
The IC50 was < 100 nM.

And the IC50 (mTOR; [9])?
Its IC50 is 16 nM.

What does the source list for `COc1ncc2cc1NS(=O)(=O)c1cccc(c1)C(=O)NCC1=CC=C(O1)c1ncnc3c1SC2=C3` [compound 69]?
IC50 (PIM-1; [5]): 100 to 1000 nM; IC50 (PI3K (p110α/p85α); [6]): 100 to 1000 nM; IC50 (mTOR; [8]): > 1000 nM

Which IC50 (PIM-1; [5]) does the source give for `COc1ncc2cc1NS(=O)(=O)c1cc(cc(C(F)(F)F)c1)C(=O)NCc1cncc(c1)-c1ncnc3c1SC2=C3` [compound 53] here?
Its IC50 is > 1000 nM.

What about the IC50 (PI3K (p110α/p85α); [6]) of the same compound?
The IC50 was > 1000 nM.

And the IC50 (mTOR; [8])?
Its IC50 is > 1000 nM.
